Assay results reported in patent publication US20040092475A1, “Organic compounds” (priority 2002, published 2004).
Structures can show the parent of a compound that is named as a salt.

Assays:
[1] = target: T1, human TRPC6 ion channel (Homo sapiens, UniProt Q9Y210); assay: FLIPR membrane potential assay, carbachol-stimulated TRPC6-expressing cells (TRPC6 clone 14); assay type: cell-based; conditions: for Mean fluorescence response calculated as (Max − Min)/Min: 10 min pre-treatment, n=10 wells, control 1.219
T1 construct: expressed in transfected cells; host or cells: TRPC6 clone 14 cells
T1 sequence (Q9Y210 1-931): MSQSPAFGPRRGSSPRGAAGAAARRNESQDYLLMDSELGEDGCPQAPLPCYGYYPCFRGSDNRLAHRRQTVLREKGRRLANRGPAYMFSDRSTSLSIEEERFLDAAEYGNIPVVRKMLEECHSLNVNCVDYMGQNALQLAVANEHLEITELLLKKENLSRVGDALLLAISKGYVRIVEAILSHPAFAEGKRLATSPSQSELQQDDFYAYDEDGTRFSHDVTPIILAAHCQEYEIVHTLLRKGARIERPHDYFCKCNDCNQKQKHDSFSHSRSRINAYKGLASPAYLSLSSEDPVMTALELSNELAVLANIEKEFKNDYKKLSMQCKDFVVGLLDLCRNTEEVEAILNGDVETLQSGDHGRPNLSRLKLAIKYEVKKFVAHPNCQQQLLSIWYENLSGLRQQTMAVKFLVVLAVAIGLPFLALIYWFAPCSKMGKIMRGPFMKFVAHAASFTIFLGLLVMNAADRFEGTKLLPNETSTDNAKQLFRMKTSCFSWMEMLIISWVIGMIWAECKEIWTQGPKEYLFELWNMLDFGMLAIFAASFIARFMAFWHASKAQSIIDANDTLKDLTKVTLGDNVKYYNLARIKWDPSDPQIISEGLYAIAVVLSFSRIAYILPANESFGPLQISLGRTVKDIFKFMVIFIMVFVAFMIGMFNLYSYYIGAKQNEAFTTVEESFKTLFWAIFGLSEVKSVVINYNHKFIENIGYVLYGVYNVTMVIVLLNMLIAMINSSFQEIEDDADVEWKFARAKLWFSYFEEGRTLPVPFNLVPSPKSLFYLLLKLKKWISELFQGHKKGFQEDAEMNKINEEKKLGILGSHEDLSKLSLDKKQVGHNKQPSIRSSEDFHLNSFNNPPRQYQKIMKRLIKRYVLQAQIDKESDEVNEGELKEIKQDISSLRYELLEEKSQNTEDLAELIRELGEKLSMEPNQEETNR
Description: In a suitable test for any inhibition of the TRPC6 channel, cells that express an endogenous G protein-coupled calcium mobilising receptor e.g. muscarinic acetylcholine receptor that can activate TRPC6 channels are used and a receptor agonist e.g. muscarinic acetylcholine receptor agonist is added to stimulate the TRPC6 channels. The cells are treated with the candidate substance prior to addition of the receptor agonist. That should produce an increase in fluorescence, but the magnitude of the increase will be reduced if the candidate substance inhibits the TRPC6 channels. Any change in fluorescence can be measured using suitable equipment, for example a fluorescence imaging plate reader.
An assay for screening candidate or test compounds is performed using cells stably-transfected with TRPC6 and expressing a functional TRPC6 channel e.g. the mammalian cell line HEK 293 which expresses an endogenous muscarinic acetylcholine receptor which can activate TRPC6 channels. […] The TRPC6-expressing cells are seeded in 96-well black-walled flat-bottomed microplates in a plating volume of 100 μl and grown to confluence for the assay. To prepare the cells for the assay, the cell culture medium is removed and 100 μl of loading buffer is added to each well. The loading buffer consists of FLIPR® membrane potential dye diluted to the required assay concentration in a buffer composed of 140 mM-NaCl, 0.15 mM CaCl2, 3.3 mM KH2PO4, 1.2 mM MgCl2, 10 mM D-glucose and 20 m M HEPES, at pH7.4 and containing 0.03 mM BAPTA-AM. The plates are incubated at 37° C. for 20 minutes prior to commencing the assay. For the detection of inhibitors of TRPC6, test agents are added to each well either before or after stimulation with the muscarinic acetylcholine receptor agonist carbachol, which activates the TRPC6 channel. The expected effect of an inhibitor would be to reduce the carbachol-stimulated increase in fluorescence. Activators of TRPC6 may be detected by substituting carbachol for a test agent, where activators will stimulate an increase in fluorescence.
TRPC6 clone 14 cells pre-treated with 1-[b-[3-(4-methoxyphenyl)propoxy]-4-methoxyphenethyl]-1H-imidazole.HCl for 10 minutes are stimulated with carbachol (10 μM) in accordance with the assay described in Example 2. The fluorescence is measured prior to carbachol addition (minimum response, i.e. Min.) and when the carbachol-stimulated increase in fluorescence has reached a maximum (maximum response, i.e. Max.). It can be seen in table 1 below that the reduced fluorescence responses are observed in compound treated-cells compared to the control response in the absence of compound.
The data is calculated as a (Max−Min)/Min response. Each concentration of 1-[b-[3-(4-methoxyphenyl)propoxy]-4-methoxyphenethyl]-1H-imidazole.HCl is the mean±SEM (standard error of the mean) of n=10 wells.

[2] = test system: receptor-mediated calcium entry (RMCE); conditions: Merritt et al, Biochem. J. (1990) 271: 515-522; cited from earlier work
[3] = target: T2, murine TRPC6 ion channel (Mus musculus, UniProt Q61143); conditions: Inoue et al, Circ. Res. (2001) 88: 325-332; cited from earlier work
T2 sequence (Q61143 1-930): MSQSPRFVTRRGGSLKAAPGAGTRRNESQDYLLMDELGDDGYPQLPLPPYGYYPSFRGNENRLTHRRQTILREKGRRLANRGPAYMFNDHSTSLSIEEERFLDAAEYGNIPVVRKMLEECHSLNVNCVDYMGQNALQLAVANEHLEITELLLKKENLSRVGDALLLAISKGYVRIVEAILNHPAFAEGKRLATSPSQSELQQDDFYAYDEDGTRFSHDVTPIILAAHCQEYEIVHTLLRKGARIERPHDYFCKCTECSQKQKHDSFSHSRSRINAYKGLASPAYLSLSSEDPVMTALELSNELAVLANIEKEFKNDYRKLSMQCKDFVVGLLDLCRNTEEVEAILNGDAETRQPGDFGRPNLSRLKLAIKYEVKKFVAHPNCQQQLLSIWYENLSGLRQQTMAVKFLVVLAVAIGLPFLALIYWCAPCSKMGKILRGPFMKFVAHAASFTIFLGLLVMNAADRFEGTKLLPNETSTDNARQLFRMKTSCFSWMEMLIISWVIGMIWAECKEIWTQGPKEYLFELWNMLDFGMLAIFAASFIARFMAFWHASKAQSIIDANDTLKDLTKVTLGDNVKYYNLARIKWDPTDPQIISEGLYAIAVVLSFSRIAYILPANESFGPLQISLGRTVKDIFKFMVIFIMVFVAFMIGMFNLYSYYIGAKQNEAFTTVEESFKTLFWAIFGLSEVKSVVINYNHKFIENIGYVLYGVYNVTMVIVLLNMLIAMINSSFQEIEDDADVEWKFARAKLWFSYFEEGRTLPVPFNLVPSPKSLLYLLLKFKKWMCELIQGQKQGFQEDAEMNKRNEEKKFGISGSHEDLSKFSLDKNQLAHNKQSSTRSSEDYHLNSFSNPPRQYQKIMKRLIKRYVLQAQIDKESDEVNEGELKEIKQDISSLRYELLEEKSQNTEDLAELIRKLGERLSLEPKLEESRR

Mean fluorescence response calculated as (Max − Min)/Min ([1]; compound concentration 0.1 μM, carbachol 10 μM): 1.172
Mean fluorescence response calculated as (Max − Min)/Min ([1]; compound concentration 1.0 μM, carbachol 10 μM): 0.977
Mean fluorescence response calculated as (Max − Min)/Min ([1]; compound concentration 03 μM (so in the source), carbachol 10 μM): 1.128
Mean fluorescence response calculated as (Max − Min)/Min ([1]; compound concentration 3.0 μM, carbachol 10 μM): 0.699
Mean fluorescence response calculated as (Max − Min)/Min ([1]; compound concentration 10.0 μM, carbachol 10 μM): 0.278
Mean fluorescence response calculated as (Max − Min)/Min ([1]; compound concentration 30.0 μM, carbachol 10 μM): 0.122
IC50 ([1]; mean±S.E.M. from n=4 experiments, carbachol 10 μM, read-out: calculated mean IC50 value): 4.9 ± 0.8 µM
activity of the human TRPC6 ion channel ([1]; result in words): inhibits
SMILES: COc1ccc(CCCOC(Cn2ccnc2)c2ccc(OC)cc2)cc1 (stereo not shown) [1-[b-[3-(4-methoxyphenyl)propoxy]-4-methoxyphenethyl]-1H-imidazole.HCl]
receptor-mediated calcium entry (RMCE) [2]: inhibit
murine TRPC6 ion channel block [3]: block
